The values below come from patent publication US20250302973A1, “POLYMER CONJUGATES OF DRUGS WITH CENTRAL NERVOUS SYSTEM (CNS) EFFECTS AND […] BLOCKING ACTIVITY AND/OR IMMUNE SYSTEM […]” (UNIVERSITY OF PADOVA, priority 2022, published 2025).

One assay relates to C57BL6/J male mice. Description: Open field test, total locomotor activity as distance travelled. The format is in vivo. To be noted: intraperitoneal 0.3 mg/kg MK-801 or equivalent dose, test 10 min after injection, compared with vehicle, n=7 per group. On the procedure: The present inventors used 7 C57BL6/J male (3-4 months old) mice per treatment group, keeping them in a temperature-controlled room (22° C.) on a 12:12 h light-dark cycle (light on at 7:00 AM) and fed a standard pellet diet and tap water ad libitum. Experimental mice were habituated to the testing room by transferring them to the behavioural room 30 min prior to beginning of the test. The open field test was conducted between 9:00 am and 4:00 pm. MK-801 and derivatives were dissolved in a vehicle composed by 0.9% NaCl physiological solution. Each mouse was singly placed at the corner of a grey-painted open field arena (40×40×30 cm) 10 min after the intraperitoneal injection (Volume of injection 0.1 mL) of either Vehicle, 0.3 mg/kg MK-801, or the equivalent dose of 0.3 mg/kg MK-801 of the PEG 4 MK-801, PEG 6 MK-801, PEG 8 MK-801 or PEG 10 MK-801 derivatives. Using an automated behavioral tracking system (Videotrack, View Point Life Science), we determined the total locomotor activity measured as distance travelled by the animal during the 10 min duration of the test.

Another assay deals with A-549 cells. Nature of the assay: A-549 lung cells co-cultured 24 hours with THP-1-derived macrophages, mRNA expression of inflammatory cytokines. As to conditions: 1 μM; A-549 cells incubated (co-culture) with macrophages derived from THP-1 cells; effect only in presence of macrophages.

As for `C[C@]12N[C@H](Cc3ccccc31)c1ccccc12` [MK-801, dizocilpine], in the assay on C57BL6/J male mice, the “distance travelled by the mice during 10 min in the Open Field Test” value was “significantly increased”. Also, in the assay on A-549 cells, the “mRNA expression of the inflammatory cytokine CCL-2” value was “reduces” and the “mRNA expression of the inflammatory cytokine IL-1β” value is on record as “reduces”.
For `CCC(=O)C(C[C@H](C)N(C)C)(c1ccccc1)c1ccccc1` [esmethadone, (S)-methadone], in the assay with A-549 cells, the “mRNA expression of the inflammatory cytokine CCL-2” value is given as “reduces” and the “mRNA expression of the inflammatory cytokine IL-1β” value is “reduces”.
